Test results reported in PMC4774911, “Biochemical Screening of Five Protein Kinases from Plasmodium falciparum against 14,000 Cell-Active Compounds” (PLoS ONE, 2016).

What was measured:
[1] = target: T1, Plasmodium falciparum calcium-dependent protein kinase 4 (CDPK4) (Plasmodium falciparum, UniProt Q8IBS5); assay: CDPK4 Kinase-Glo ATP-consumption screen and dose-response; format: biochemical; conditions: hits below 1 uM
T1 construct: 6-Histidine (N); made in house
T1 sequence (Q8IBS5 1-528): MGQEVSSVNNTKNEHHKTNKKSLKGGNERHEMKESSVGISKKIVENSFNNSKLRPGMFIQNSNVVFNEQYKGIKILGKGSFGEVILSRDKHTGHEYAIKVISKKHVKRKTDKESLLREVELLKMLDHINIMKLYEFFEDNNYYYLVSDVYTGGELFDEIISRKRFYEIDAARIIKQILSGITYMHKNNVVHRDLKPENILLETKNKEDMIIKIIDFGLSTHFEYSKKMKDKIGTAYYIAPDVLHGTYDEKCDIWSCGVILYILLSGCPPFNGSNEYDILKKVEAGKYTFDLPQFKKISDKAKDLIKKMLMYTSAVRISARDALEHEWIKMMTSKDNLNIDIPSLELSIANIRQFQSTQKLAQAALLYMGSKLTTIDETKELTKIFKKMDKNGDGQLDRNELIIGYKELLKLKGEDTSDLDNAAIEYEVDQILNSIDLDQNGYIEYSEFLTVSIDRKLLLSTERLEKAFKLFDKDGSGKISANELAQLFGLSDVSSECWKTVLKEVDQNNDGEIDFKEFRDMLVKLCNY
In short: (§1)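 ATP consumption by recombinant P. falciparum CDPK4 or CDPK1 measured as residual ATP by Kinase-Glo luminescence, with 40 μM Syntide-2 substrate and 90 min incubation stopped with 5 mM EGTA. Single-point screen at 1 μM final, followed by dose-response; no-substrate wells as negative control.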

DD2 = test system: DD2; parameters: method as in F.J. Gamo et al., Nature 2010; conditions: P. falciparum Dd2; downloaded from ChEMBL ref F.J. Gamo et al., Nature 2010; cited from earlier work
[2] = target: T2, Plasmodium falciparum calcium-dependent protein kinase 1 (CDPK1) (Plasmodium falciparum, UniProt P62344); assay: CDPK1 Kinase-Glo ATP-consumption screen and dose-response; format: biochemical; conditions: hits below 1 uM; read-out: CDPK1 IC50
T2 construct: 6-Histidine (N); made in house
In short: as §1

PKG = PKG (Plasmodium falciparum, UniProt Q8I719); assay: PKG IC50 (supplementary data file of hits); format: biochemical
Excerpt: Supplement pone.0149996.s003.xls, sheet "combined_1_sorted"

HepG2 cells = conditions: HepG2 cells; downloaded from ChEMBL ref F.J. Gamo et al., Nature 2010; cited from earlier work
P. falciparum 3D7 cells = conditions: P. falciparum 3D7; downloaded from ChEMBL ref F.J. Gamo et al., Nature 2010; cited from earlier work
3D7 PFLDH = test system: 3D7 PFLDH; parameters: method as in F.J. Gamo et al., Nature 2010; conditions: downloaded from ChEMBL ref F.J. Gamo et al., Nature 2010; cited from earlier work
[3] = target: T3, Plasmodium falciparum protein kinase 6 (PK6) (Plasmodium falciparum, UniProt Q8IDW1); assay: biochemical; conditions: hits below 1 uM; read-out: PK6 IC50
T3 construct: 6-Histidine (N); made in house
T3 sequence (Q8IDW1 1-305): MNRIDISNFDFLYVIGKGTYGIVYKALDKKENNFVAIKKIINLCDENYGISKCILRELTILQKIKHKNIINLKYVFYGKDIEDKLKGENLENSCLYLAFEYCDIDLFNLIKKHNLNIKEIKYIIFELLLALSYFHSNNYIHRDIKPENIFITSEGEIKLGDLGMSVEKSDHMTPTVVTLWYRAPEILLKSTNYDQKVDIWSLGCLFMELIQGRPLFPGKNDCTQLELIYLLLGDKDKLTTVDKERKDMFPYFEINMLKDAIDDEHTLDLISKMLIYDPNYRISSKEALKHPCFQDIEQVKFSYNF

Chain of PKG (Q8I719 whole entry): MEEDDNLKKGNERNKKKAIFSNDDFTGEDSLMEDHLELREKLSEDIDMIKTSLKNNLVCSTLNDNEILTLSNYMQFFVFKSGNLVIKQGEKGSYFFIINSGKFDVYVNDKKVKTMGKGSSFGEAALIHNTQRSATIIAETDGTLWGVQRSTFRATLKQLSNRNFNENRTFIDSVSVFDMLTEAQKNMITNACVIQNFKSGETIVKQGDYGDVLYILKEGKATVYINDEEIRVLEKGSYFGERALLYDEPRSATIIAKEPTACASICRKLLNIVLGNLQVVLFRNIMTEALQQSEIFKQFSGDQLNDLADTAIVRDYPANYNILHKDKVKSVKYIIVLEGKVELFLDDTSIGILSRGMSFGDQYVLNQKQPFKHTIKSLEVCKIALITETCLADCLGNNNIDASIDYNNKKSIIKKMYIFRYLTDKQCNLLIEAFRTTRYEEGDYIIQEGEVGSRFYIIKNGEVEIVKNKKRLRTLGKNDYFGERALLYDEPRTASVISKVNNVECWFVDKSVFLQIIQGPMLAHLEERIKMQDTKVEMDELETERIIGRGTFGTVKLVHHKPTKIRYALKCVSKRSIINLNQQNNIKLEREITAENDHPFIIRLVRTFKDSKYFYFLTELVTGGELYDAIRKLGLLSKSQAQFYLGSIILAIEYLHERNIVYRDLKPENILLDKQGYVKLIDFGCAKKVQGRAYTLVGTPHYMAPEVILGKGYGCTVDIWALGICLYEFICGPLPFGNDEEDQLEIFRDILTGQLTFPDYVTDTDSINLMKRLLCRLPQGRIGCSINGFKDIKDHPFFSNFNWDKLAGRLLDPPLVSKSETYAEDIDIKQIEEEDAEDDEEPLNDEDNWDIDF
T2 sequence (P62344 whole entry): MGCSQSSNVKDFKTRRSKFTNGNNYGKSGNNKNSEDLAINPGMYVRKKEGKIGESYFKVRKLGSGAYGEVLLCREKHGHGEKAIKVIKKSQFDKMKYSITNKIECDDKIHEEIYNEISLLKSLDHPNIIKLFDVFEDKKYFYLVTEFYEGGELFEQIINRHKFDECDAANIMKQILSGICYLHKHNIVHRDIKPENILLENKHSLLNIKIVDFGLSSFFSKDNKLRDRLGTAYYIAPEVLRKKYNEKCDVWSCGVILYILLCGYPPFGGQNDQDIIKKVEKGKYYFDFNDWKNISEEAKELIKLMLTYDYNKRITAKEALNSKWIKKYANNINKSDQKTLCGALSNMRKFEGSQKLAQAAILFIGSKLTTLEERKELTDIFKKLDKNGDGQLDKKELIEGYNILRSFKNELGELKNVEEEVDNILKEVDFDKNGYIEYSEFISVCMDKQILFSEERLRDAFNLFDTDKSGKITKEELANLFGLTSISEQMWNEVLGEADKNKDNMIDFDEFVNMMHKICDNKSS

Row | Compound | IC50 [1] [µM] | PCT_INHB_DD2 (DD2) | IC50 [2] [µM] | IC50 (PKG) [µM] | PCT_INHIB_HEPG2 (HepG2 cells) | PCT_IHB_3D7 (P. falciparum 3D7 cells) | pXC50_3D7 (P. falciparum 3D7 cells) | PCT_INHIB_3D7_PFLDH (3D7 PFLDH) | IC50 [3] [µM]
1 | O=C(Nc1cccc(-c2nn3ncccc3c2-c2ccnc(Nc3ccccc3)n2)c1)c1c(F)cccc1F [TCMDC-134631] | 0.352 | 96 | 0.039 | > 10 | 51 | 98 | 6.139 | 0 | 
2 | CC(=O)Nc1cccc(Nc2nccc(-c3c(-c4cccc(NC(=O)c5c(F)cccc5F)c4)nn4ncccc34)n2)c1 [TCMDC-135548] | 0.026 | 51 | 0.015 | 0.524 | 83 | 96 | 6.736 | 5 | 0.144
3 | O=C(Nc1cccc(-c2nn3ncccc3c2-c2ccnc(Nc3cccc(-c4cnco4)c3)n2)c1)c1c(F)cccc1F [TCMDC-135550] | 0.145 | 98 | 0.023 | > 10 | 96 | 97 | 6.779 | 2 | 
4 | Cn1cccc1C(=O)Nc1cccc(-c2nn3ccccc3c2-c2ccnc(Nc3ccc4c(c3)OCCO4)n2)c1 [TCMDC-135663] | 0.191 | 27 |  | > 10 | 12 | 95 | 5.869 | 4 | 
5 | O=C(NCC(c1ccc(C(F)(F)F)cc1)N1CCCC1)c1cc(-c2ccncc2)c(-c2cccc(O)c2)o1.O=C(O)C(F)(F)F (stereo not drawn) [TCMDC-135665] | 0.178 | 53 | 0.283 | 7.64 | 9 | 95 | 5.973 | 0 | 
6 | COc1cc(Nc2nccc(-c3c(-c4cccc(NC(=O)c5c(F)cccc5F)c4)nn4ccccc34)n2)cc(OC)c1OC [TCMDC-135668] | 0.077 | 98 | 0.06 | > 10 | 74 | 98 | 7.112 | 4 | 
7 | CCS(=O)(=O)c1ccc(OC)c(Nc2nccc(-c3c(-c4cccc(NC(=O)c5c(F)cccc5F)c4)nn4ncccc34)n2)c1 [TCMDC-135682] | 0.201 | 88 |  | > 10 | 27 | 87 | 5.986 | 0 | 
8 | COc1cc(Nc2nccc(-c3c(-c4cccc(NC(=O)c5c(F)cccc5F)c4)nn4ncccc34)n2)cc(OC)c1OC [TCMDC-135684] | 0.045 | 97 |  | > 10 | 96 | 98 | 7.4867 | 1 | 
9 | O=C(Nc1cccc(-c2nn3ccccc3c2-c2ccnc(Nc3cccc(-c4cnco4)c3)n2)c1)C1CCCCC1 [TCMDC-135769] | 0.612 | 99 | 0.164 | > 10 | 71 | 95 | 6.584 | 0 | 
10 | O=C(Nc1cccc(-c2nn3ccccc3c2-c2ccnc(Nc3ccc(C(=O)N4CCOCC4)cc3)n2)c1)c1c(F)cccc1F [TCMDC-135910] | 0.311 | 97 | 0.092 | > 10 | 72 | 99 | 6.417 | 4 | 
11 | COCCOc1ccc(Nc2nccc(-c3c(-c4cccc(NC(=O)c5c(F)cccc5F)c4)nn4ccccc34)n2)cc1Cl [TCMDC-135955] | 0.853 | 97 | 0.152 | > 10 | 53 | 99 | 6.448 | 4 | 
12 | CCn1c(-c2nonc2N)nc2c(-c3cccc(NC(=O)Nc4cccc(C(F)(F)F)c4)c3)ncc(OCCCN)c21.O=C(O)C(F)(F)F [TCMDC-136178] | 0.342 | 70 | 0.015 | 2.08 | 21 | 95 | 6.014 | 2 | 
13 | CCn1c(-c2nonc2N)nc2c(-c3cccc(NC(=O)Nc4ccccc4OC)c3)ncc(OCCCN)c21.O=C(O)C(F)(F)F [TCMDC-136190] | 0.706 | 58 | 0.032 | 0.783 | 84 | 92 | 5.998 | 0 | 
14 | CCn1c(-c2nonc2N)nc2c(-c3cccc(NC(=O)Nc4ccccc4Cl)c3)ncc(OCCCN)c21.O=C(O)C(F)(F)F [TCMDC-136192] | 0.138 | 74 | 0.072 | 0.566 | 2 | 99 | 6.173 | 0 | 
15 | CC(C)(C)CNCC(C)(C)c1nc(-c2ccc(Cl)c(O)c2)c(-c2ccncc2)[nH]1.Cl [TCMDC-140549] | 0.637 | 98 | 0.159 | > 10 | 42 | 100 | 6.221 | 5 | 
16 | CC(C)(CN)c1cc(-c2ccc(Cl)c(O)c2)c(-c2ccncc2)o1.Cl [TCMDC-141334] | 0.433 | 97 | 0.013 | 0.042 | 44 | 92 | 5.944 | 7 | 
